In US11091479B2, “Triazolopyridin-3-ones or their salts and pharmaceutical compositions comprising the same” (YUHAN CORPORATION, priority 2018, dated 2021):
Structures can show the parent of a compound that is named as a salt.

Tests used:
Type in all cases: biochemical
recombinant human VAP-1 = target: T1, recombinant human VAP-1 (Homo sapiens, UniProt Q16853); assay: Activity on recombinant human VAP-1, HRP-coupled Amplex Red hydrogen peroxide assay, benzylamine substrate; settings: 30 min incubation at 37° C., 1 mM benzylamine, read-out: Inhibitory Activity (IC50, nM) human VAP-1
T1 construct: purchased R&D systems
T1 sequence (Q16853 1-763): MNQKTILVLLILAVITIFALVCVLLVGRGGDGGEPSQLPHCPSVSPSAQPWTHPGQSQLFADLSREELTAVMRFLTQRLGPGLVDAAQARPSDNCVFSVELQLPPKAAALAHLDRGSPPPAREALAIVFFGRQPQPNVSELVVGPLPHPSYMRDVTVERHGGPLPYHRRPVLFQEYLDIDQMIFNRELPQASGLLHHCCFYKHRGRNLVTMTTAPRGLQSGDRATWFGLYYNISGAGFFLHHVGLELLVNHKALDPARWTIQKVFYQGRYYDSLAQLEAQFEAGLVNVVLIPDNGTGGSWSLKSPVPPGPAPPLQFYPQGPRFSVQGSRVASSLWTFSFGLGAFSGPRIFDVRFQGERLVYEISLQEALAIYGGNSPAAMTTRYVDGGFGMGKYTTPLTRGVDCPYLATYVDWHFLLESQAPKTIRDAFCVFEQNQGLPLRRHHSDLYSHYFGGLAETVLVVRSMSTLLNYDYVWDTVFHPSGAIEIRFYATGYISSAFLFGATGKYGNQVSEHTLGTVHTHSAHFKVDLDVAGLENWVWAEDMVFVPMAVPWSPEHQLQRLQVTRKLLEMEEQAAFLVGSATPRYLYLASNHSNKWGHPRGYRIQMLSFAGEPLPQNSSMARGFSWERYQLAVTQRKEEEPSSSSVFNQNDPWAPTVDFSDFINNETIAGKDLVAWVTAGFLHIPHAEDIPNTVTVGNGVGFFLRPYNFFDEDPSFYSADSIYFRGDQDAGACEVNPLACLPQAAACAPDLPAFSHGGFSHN
Method in brief: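 Recombinant human VAP-1 in 50 mM sodium phosphate pH 7.4 preincubated with compound for 30 min at 37 °C, then 1 mM benzylamine, 200 uM Amplex Red and 1 U/mL HRP added. Resorufin fluorescence (ex 544/em 590 nm) followed over 1-2 h; % signal-rate decrease vs DMSO control, 8-point 4-parameter fit for IC50.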

[1] = target: T2, recombinant human MAO-A (monoamine oxidase-A) (Homo sapiens, UniProt P21397); assay: Activity on recombinant human MAO-A, method similar to VAP-1 assay, 0.5 mM tyramine substrate; settings: read-out: Inhibitory Activity (IC50, nM) MAO-A
T2 construct: purchased Sigma-Aldrich
T2 sequence (P21397 1-527): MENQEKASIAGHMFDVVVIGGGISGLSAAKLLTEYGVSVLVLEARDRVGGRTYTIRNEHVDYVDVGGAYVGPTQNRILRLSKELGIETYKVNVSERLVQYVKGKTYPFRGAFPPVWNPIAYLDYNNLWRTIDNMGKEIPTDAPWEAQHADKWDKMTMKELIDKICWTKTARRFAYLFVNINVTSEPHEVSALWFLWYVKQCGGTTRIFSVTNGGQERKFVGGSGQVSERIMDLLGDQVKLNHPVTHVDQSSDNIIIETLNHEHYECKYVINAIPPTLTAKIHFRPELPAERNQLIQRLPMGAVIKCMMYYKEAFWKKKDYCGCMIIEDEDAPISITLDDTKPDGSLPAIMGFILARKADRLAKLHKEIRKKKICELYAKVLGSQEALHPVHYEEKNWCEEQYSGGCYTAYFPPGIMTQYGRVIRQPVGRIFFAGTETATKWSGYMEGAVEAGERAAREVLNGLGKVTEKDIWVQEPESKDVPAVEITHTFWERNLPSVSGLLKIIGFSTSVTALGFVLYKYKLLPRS
Method in brief: (§1)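 Amplex Red/HRP-coupled H2O2 fluorescence assay run as for VAP-1: enzyme in 50 mM sodium phosphate pH 7.4 preincubated with compound 30 min at 37 °C, then substrate (putrescine for DAO, benzylamine for MAO-B, tyramine for MAO-A) added with 200 uM Amplex Red, 1 U/mL HRP. Signal rate over 1-2 h; IC50 from 4-parameter logistic fit.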

[2] = target: T3, recombinant human MAO-B (monoamine oxidase-B) (Homo sapiens, UniProt P27338); assay: Activity on recombinant human MAO-B, method similar to VAP-1 assay, 1 mM benzylamine substrate; settings: read-out: Inhibitory Activity (IC50, nM) MAO-B
T3 construct: purchased Sigma-Aldrich
T3 sequence (P27338 1-520): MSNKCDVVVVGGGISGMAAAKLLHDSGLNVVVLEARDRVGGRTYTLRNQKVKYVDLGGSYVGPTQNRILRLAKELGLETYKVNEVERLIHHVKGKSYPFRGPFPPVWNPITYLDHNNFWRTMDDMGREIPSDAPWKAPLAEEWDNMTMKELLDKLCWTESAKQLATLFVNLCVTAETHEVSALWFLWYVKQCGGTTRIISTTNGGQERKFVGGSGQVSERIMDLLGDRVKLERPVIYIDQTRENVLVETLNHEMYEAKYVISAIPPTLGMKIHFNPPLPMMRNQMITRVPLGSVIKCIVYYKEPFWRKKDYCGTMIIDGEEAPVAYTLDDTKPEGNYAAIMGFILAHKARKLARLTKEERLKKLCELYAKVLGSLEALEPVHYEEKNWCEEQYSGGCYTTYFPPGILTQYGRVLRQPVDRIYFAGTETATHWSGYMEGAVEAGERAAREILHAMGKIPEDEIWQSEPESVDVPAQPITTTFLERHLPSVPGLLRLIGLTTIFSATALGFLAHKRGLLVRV
Method in brief: as §1

[3] = target: T4, recombinant human DAO (diamine oxidase) (Homo sapiens, UniProt P19801); assay: Activity on recombinant human DAO, method similar to VAP-1 assay, 1 mM putrescine substrate; settings: read-out: Inhibitory Activity (IC50, nM) DAO
T4 construct: purchased R&D systems
T4 sequence (P19801 20-751): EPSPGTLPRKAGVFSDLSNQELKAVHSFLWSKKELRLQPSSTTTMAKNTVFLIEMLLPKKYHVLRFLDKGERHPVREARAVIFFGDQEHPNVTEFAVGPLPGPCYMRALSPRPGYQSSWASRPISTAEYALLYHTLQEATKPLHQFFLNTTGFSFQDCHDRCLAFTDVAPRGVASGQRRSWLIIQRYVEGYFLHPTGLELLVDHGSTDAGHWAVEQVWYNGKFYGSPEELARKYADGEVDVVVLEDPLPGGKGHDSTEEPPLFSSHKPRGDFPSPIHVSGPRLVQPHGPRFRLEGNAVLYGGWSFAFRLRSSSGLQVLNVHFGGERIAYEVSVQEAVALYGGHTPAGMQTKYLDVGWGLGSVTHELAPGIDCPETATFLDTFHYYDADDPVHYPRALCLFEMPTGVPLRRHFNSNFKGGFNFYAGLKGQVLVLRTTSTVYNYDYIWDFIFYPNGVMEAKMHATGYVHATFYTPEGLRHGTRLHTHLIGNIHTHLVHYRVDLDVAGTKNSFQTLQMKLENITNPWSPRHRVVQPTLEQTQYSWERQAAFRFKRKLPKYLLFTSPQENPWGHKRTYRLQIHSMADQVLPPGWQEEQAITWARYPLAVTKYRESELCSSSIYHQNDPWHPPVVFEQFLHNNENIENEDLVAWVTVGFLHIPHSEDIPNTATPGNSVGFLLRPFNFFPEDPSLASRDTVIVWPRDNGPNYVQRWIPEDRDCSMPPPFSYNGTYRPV
Method in brief: as §1

| Compound | IC50 (recombinant human VAP-1) | IC50 [1] | IC50 [2] | IC50 [3] |
| --- | --- | --- | --- | --- |
| NCC(Cn1nc2cc(-c3ccc(N4CCNCC4)cc3)ccn2c1=O)=C(F)F [Example 49, 2-[2-(aminomethyl)-3,3-difluoro-allyl]-7-(4-piperazin-1-ylphenyl)-[1,2,4]triazolo[4,3-a]pyridin-3-one ditrifluoroacetate] | 1.6 nM | > 100000 nM | 53000 nM | 390 nM |
| NCC(Cn1nc2cc(-c3ccc(C(F)(F)F)nc3)ccn2c1=O)=C(F)F [Example 50, 2-[2-(aminomethyl)-3,3-difluoro-allyl]-7-[6-(trifluoromethyl)-3-pyridyl]-[1,2,4]triazolo[4,3-a]pyridin-3-one trifluoroacetate] | 0.2 nM | > 100000 nM | 100 nM | 3 nM |
| CN(C)c1ccc(-c2ccn3c(=O)n(CC(CN)=C(F)F)nc3c2)cn1 [Example 51, 2-[2-(aminomethyl)-3,3-difluoro-allyl]-7-[6-(dimethylamino)-3-pyridyl]-[1,2,4]triazolo[4,3-a]pyridin-3-one trifluoroacetate] | 0.4 nM | > 100000 nM | 150 nM | 17 nM |
| NCC(Cn1nc2cc(-c3ccc4c(c3)OCO4)ccn2c1=O)=C(F)F [Example 52, 2-[2-(aminomethyl)-3,3-difluoro-allyl]-7-(1,3-benzodioxol-5-yl)-[1,2,4]triazolo[4,3-a]pyridin-3-one trifluoroacetate] | 0.3 nM | > 100000 nM | 37 nM | 160 nM |
| Cc1cc(-c2ccn3c(=O)n(CC(CN)=C(F)F)nc3c2)cc2c1NC(=O)CC2 [Example 53, 6-[2-[2-(aminomethyl)-3,3-difluoro-allyl]-3-oxo-[1,2,4]triazolo[4,3-a]pyridin-7-yl]-8-methyl-3,4-dihydro-1H-quinolin-2-one trifluoroacetate] | 0.2 nM | > 100000 nM | 320 nM | 12 nM |
| CN1C(=O)CCc2cc(-c3ccn4c(=O)n(CC(CN)=C(F)F)nc4c3)ccc21 [Example 54, 6-[2-[2-(aminomethyl)-3,3-difluoro-allyl]-3-oxo-[1,2,4]triazolo[4,3-a]pyridin-7-yl]-1-methyl-3,4-dihydroquinolin-2-one trifluoroacetate] | 0.1 nM | > 100000 nM | 170 nM | 22 nM |
| CCn1cc(-c2ccn3c(=O)n(CC(CN)=C(F)F)nc3c2)cn1 [Example 55, 2-[2-(aminomethyl)-3,3-difluoro-allyl]-7-(1-ethylpyrazol-4-yl)-[1,2,4]triazolo[4,3-a]pyridin-3-one trifluoroacetate] | 0.4 nM | > 100000 nM | 5100 nM | 1800 nM |

Other lines, results leading:

| IC50 (recombinant human VAP-1) | IC50 [1] | IC50 [2] | IC50 [3] | Compound |
| --- | --- | --- | --- | --- |
| 1 nM | > 100000 nM | 2500 nM | 6300 nM | Cn1cc(C#Cc2ccn3c(=O)n(CC(CN)=C(F)F)nc3c2)cn1 [Example 56, 2-[2-(aminomethyl)-3,3-difluoro-allyl]-7-[2-(1-methylpyrazol-4-yl)ethynyl]-[1,2,4]triazolo[4,3-a]pyridin-3-one trifluoroacetate] |
| 0.3 nM | > 100000 nM | 6200 nM | 120 nM | CN(C)c1ccc(C#Cc2ccn3c(=O)n(CC(CN)=C(F)F)nc3c2)cn1 [Example 57, 2-[2-(aminomethyl)-3,3-difluoro-allyl]-7-[2-[6-(dimethylamino)-3-pyridyl]ethynyl]-[1,2,4]triazolo[4,3-a]pyridin-3-one trifluoroacetate] |
| 0.3 nM | > 100000 nM | 5300 nM | 34 nM | NCC(Cn1nc2cc(C#Cc3ccc(N4CCOCC4)nc3)ccn2c1=O)=C(F)F [Example 58, 2-[2-(aminomethyl)-3,3-difluoro-allyl]-7-[2-(6-morpholino-3-pyridyl)ethynyl]-[1,2,4]triazolo[4,3-a]pyridin-3-one trifluoroacetate] |
| 1.8 nM | > 100000 nM | 2700 nM | 9000 nM | NCC(Cn1nc2cc(C#Cc3ccc4c(c3)NCCO4)ccn2c1=O)=C(F)F [Example 59, 2-[2-(aminomethyl)-3,3-difluoro-allyl]-7-[2-(3,4-dihydro-2H-1,4-benzoxazin-6-yl)ethynyl]-[1,2,4]triazolo[4,3-a]pyridin-3-one ditrifluoroacetate] |
| 0.4 nM | > 100000 nM | > 100000 nM | 220 nM | NCC(Cn1nc2cc(C#Cc3cnc4c(c3)NCCO4)ccn2c1=O)=C(F)F [Example 60, 2-[2-(aminomethyl)-3,3-difluoro-allyl]-7-[2-(2,3-dihydro-1H-pyrido[2,3-b][1,4]oxazin-7-yl)ethynyl]-[1,2,4]triazolo[4,3-a]pyridin-3-one ditrifluoroacetate] |
| 0.6 nM | > 100000 nM | 37000 nM | 220 nM | NCC(Cn1nc2cc(C#Cc3cnc4c(c3)OCCN4)ccn2c1=O)=C(F)F [Example 61, 2-[2-(aminomethyl)-3,3-difluoro-allyl]-7-[2-(3,4-dihydro-2H-pyrido[3,2-b][1,4]oxazin-7-yl)ethynyl]-[1,2,4]triazolo[4,3-a]pyridin-3-one ditrifluoroacetate] |
